Results reported in PubChem BioAssay (NCI).
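1) Cells in 96-well plates. 2) Compound, 48 h, 5 concentrations. 3) Linear interpolation between surrounding doses. 4) Unreached endpoint = highest concentration. The concentration for full growth arrest is given as TGI.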

What was measured:
Experiment in all cases: inhibition of tumour cell growth, NCI panel, 48 h
LOX IMVI melanoma = system: LOX IMVI melanoma
DU-145 prostate = system: DU-145 prostate
SR leukemia = system: SR leukemia
UACC-62 melanoma = system: UACC-62 melanoma
M14 melanoma = system: M14 melanoma
MOLT-4 leukemia = system: MOLT-4 leukemia
UACC-257 melanoma = system: UACC-257 melanoma
786-0 renal = system: 786-0 renal
SK-MEL-5 melanoma = system: SK-MEL-5 melanoma
NCI-H23 lung = system: NCI-H23 lung
SF-539 CNS = system: SF-539 CNS
SW-620 colon = system: SW-620 colon
MCF7 breast = system: MCF7 breast
SK-MEL-2 melanoma = system: SK-MEL-2 melanoma
CAKI-1 renal = system: CAKI-1 renal
OVCAR-8 ovarian = system: OVCAR-8 ovarian
U251 CNS = system: U251 CNS
A498 renal = system: A498 renal
EKVX NSCLC = system: EKVX NSCLC
RXF 393 renal = system: RXF 393 renal
NCI-H226 lung = system: NCI-H226 lung
UO-31 renal = system: UO-31 renal
PC-3 prostate = system: PC-3 prostate
SN12C renal = system: SN12C renal
MALME-3M melanoma = system: MALME-3M melanoma
K-562 leukemia = system: K-562 leukemia
HCT-15 colon = system: HCT-15 colon
OVCAR-4 ovarian = system: OVCAR-4 ovarian
CCRF-CEM leukemia = system: CCRF-CEM leukemia
MDA-MB-231 breast = system: MDA-MB-231 breast
SNB-19 CNS = system: SNB-19 CNS
TK-10 renal = system: TK-10 renal
MDA-N = system: MDA-N
COLO 205 colon = system: COLO 205 colon
SK-MEL-28 melanoma = system: SK-MEL-28 melanoma
NCI-H522 lung = system: NCI-H522 lung
HT29 colon = system: HT29 colon
SK-OV-3 ovarian = system: SK-OV-3 ovarian
T-47D breast = system: T-47D breast
HL-60(TB) leukemia = system: HL-60(TB) leukemia
KM12 colon = system: KM12 colon
HOP-62 NSCLC = system: HOP-62 NSCLC
SNB-75 CNS = system: SNB-75 CNS
OVCAR-5 ovarian = system: OVCAR-5 ovarian
NCI/ADR-RES ovarian = system: NCI/ADR-RES ovarian
HCT-116 colon = system: HCT-116 colon
HCC-2998 colon = system: HCC-2998 colon
HOP-92 NSCLC = system: HOP-92 NSCLC
A549 NSCLC = system: A549 NSCLC
IGROV1 ovarian = system: IGROV1 ovarian
MDA-MB-435 = system: MDA-MB-435
OVCAR-3 ovarian = system: OVCAR-3 ovarian
ACHN renal = system: ACHN renal
NCI-H460 lung = system: NCI-H460 lung
SF-268 CNS = system: SF-268 CNS
SF-295 CNS = system: SF-295 CNS
RPMI-8226 leukemia = system: RPMI-8226 leukemia

## CC[n+]1cnc(N)c2c(-c3ccc(Cl)cc3)cn(-c3ccc(C)cc3)c21
LOX IMVI melanoma
  TGI: 25.9 µM
DU-145 prostate
  TGI: 31.8 µM
SR leukemia
  TGI: 19.1 µM
UACC-62 melanoma
  TGI: 24.3 µM
M14 melanoma
  TGI: 4.14 µM
MOLT-4 leukemia
  TGI: 20.5 µM
UACC-257 melanoma
  TGI: 6.06 µM
786-0 renal
  TGI: 23.5 µM
SK-MEL-5 melanoma
  TGI: 22 µM
NCI-H23 lung
  TGI: 35.4 µM
SF-539 CNS
  TGI: 28.5 µM
SW-620 colon
  TGI: 30.5 µM
MCF7 breast
  TGI: 3.35 µM
SK-MEL-2 melanoma
  TGI: 36 µM
CAKI-1 renal
  TGI: 30.6 µM
OVCAR-8 ovarian
  TGI: 32.7 µM
U251 CNS
  TGI: 24.3 µM
A498 renal
  TGI: 24 µM
EKVX NSCLC
  TGI: 30.8 µM
RXF 393 renal
  TGI: 18.2 µM
NCI-H226 lung
  TGI: 28.2 µM
UO-31 renal
  TGI: 21.5 µM
PC-3 prostate
  TGI: 25 µM
SN12C renal
  TGI: 25.2 µM
MALME-3M melanoma
  TGI: 25.5 µM
K-562 leukemia
  TGI: 20.7 µM
HCT-15 colon
  TGI: 32.6 µM
OVCAR-4 ovarian
  TGI: 15.6 µM
CCRF-CEM leukemia
  TGI: 22.7 µM
MDA-MB-231 breast
  TGI: 31.7 µM
SNB-19 CNS
  TGI: 28.8 µM
TK-10 renal
  TGI: 31.6 µM
MDA-N
  TGI: 25 µM
COLO 205 colon
  TGI: 17.1 µM
SK-MEL-28 melanoma
  TGI: 21.2 µM
NCI-H522 lung
  TGI: 31.2 µM
HT29 colon
  TGI: 17.7 µM
SK-OV-3 ovarian
  TGI: 29 µM
T-47D breast
  TGI: 32.2 µM
HL-60(TB) leukemia
  TGI: 44.3 µM
KM12 colon
  TGI: 30.7 µM
HOP-62 NSCLC
  TGI: 30.5 µM
SNB-75 CNS
  TGI: 14.1 µM
OVCAR-5 ovarian
  TGI: 29.7 µM
NCI/ADR-RES ovarian
  TGI: 26.5 µM
HCT-116 colon
  TGI: 21.3 µM
HCC-2998 colon
  TGI: 14.8 µM
HOP-92 NSCLC
  TGI: 24.7 µM
A549 NSCLC
  TGI: 25.7 µM
IGROV1 ovarian
  TGI: 26.5 µM
MDA-MB-435
  TGI: 23.7 µM
OVCAR-3 ovarian
  TGI: 21.6 µM
ACHN renal
  TGI: 25.6 µM
NCI-H460 lung
  TGI: 35.8 µM
SF-268 CNS
  TGI: 26.7 µM
SF-295 CNS
  TGI: 25.3 µM

## CO/C(=N\N=C\c1cc(OC)ccc1OC)c1ccncc1
LOX IMVI melanoma
  TGI: > 10 µM
SR leukemia
  TGI: > 10 µM
MOLT-4 leukemia
  TGI: > 10 µM
786-0 renal
  TGI: > 10 µM
SK-MEL-5 melanoma
  TGI: > 10 µM
NCI-H23 lung
  TGI: > 10 µM
SF-539 CNS
  TGI: > 10 µM
SW-620 colon
  TGI: > 10 µM
MCF7 breast
  TGI: > 10 µM
SK-MEL-2 melanoma
  TGI: > 10 µM
OVCAR-8 ovarian
  TGI: > 10 µM
U251 CNS
  TGI: > 10 µM
A498 renal
  TGI: > 10 µM
RPMI-8226 leukemia
  TGI: > 10 µM
RXF 393 renal
  TGI: > 10 µM
NCI-H226 lung
  TGI: > 10 µM
UO-31 renal
  TGI: > 10 µM
PC-3 prostate
  TGI: > 10 µM
SN12C renal
  TGI: > 10 µM
MALME-3M melanoma
  TGI: > 10 µM
K-562 leukemia
  TGI: > 10 µM
HCT-15 colon
  TGI: > 10 µM
CCRF-CEM leukemia
  TGI: > 10 µM
SNB-19 CNS
  TGI: > 10 µM
TK-10 renal
  TGI: > 10 µM
MDA-N
  TGI: > 10 µM
COLO 205 colon
  TGI: > 10 µM
SK-MEL-28 melanoma
  TGI: > 10 µM
SK-OV-3 ovarian
  TGI: > 10 µM
T-47D breast
  TGI: > 10 µM
HL-60(TB) leukemia
  TGI: > 10 µM
KM12 colon
  TGI: > 10 µM
HOP-62 NSCLC
  TGI: > 10 µM
SNB-75 CNS
  TGI: > 10 µM
OVCAR-5 ovarian
  TGI: > 10 µM
NCI/ADR-RES ovarian
  TGI: > 10 µM
HCT-116 colon
  TGI: > 10 µM
HCC-2998 colon
  TGI: > 10 µM
A549 NSCLC
  TGI: > 10 µM
IGROV1 ovarian
  TGI: > 10 µM
ACHN renal
  TGI: > 10 µM
NCI-H460 lung
  TGI: > 10 µM
SF-268 CNS
  TGI: > 10 µM
SF-295 CNS
  TGI: > 10 µM
